From a compilation of properties of binary mixtures (doi:10.1016/j.fluid.2023.113736)

Test: xn = mol fraction of the nth substance listed
Conditions: 100 kPa, x1 = 0.5

## C[N+](CCO)(CCO)CCOCCO.[Cl-] + NC(N)=O
283.15 K
  viscosity: 45000 mPa·s
288.15 K
  viscosity: 23200 mPa·s
293.15 K
  viscosity: 12700 mPa·s
298.15 K
  viscosity: 7350 mPa·s
303.15 K
  viscosity: 4396 mPa·s
308.15 K
  viscosity: 2744 mPa·s
313.15 K
  viscosity: 1766 mPa·s
318.15 K
  viscosity: 1172 mPa·s
323.15 K
  viscosity: 794 mPa·s
333.15 K
  viscosity: 400 mPa·s
338.15 K
  viscosity: 295 mPa·s
